Reference: US6693216B2, “Calcium double salts” (Nutrinova Nutrition Specialties & Food Ingredients GmbH, priority 2000, dated 2004)
Where two headings read alike, the source gives them in different places.

Experiments:
Details in all cases: Part II, 1 g/l in apple juice pH 4.5, 25° C.
Lactic acid bacteria = system: Lactic acid bacteria
Molds I = system: Molds I
Bacilli = system: Bacilli
Acetic acid bacteria = system: Acetic acid bacteria
Clostridia = system: Clostridia
Molds II = system: Molds II
Gram-negative bacteria = system: Gram-negative bacteria
Yeasts = system: Yeasts
Gram-positive bacteria = system: Gram-positive bacteria
Thermophilic bacilli = system: Thermophilic bacilli
[1] = 1 day after inoculation (2.7 × 10^4)
[2] = 3 days after inoculation (2.7 × 10^4)
[3] = 7 days after inoculation (2.7 × 10^4)
[4] = 14 days after inoculation (2.7 × 10^4)
[5] = 1 day after inoculation (2.2 × 10^4)
[6] = 3 days after inoculation (2.2 × 10^4)
[7] = 7 days after inoculation (2.2 × 10^4)
[8] = 14 days after inoculation (2.2 × 10^4)
[9] = 1 day after inoculation (3.3 × 10^4)
[10] = 3 days after inoculation (3.3 × 10^4)
[11] = 7 days after inoculation (3.3 × 10^4)
[12] = 14 days after inoculation (3.3 × 10^4)
[13] = 1 day after inoculation (2.8 × 10^4)
[14] = 3 days after inoculation (2.8 × 10^4)
[15] = 7 days after inoculation (2.8 × 10^4)
[16] = 14 days after inoculation (2.8 × 10^4)
[17] = 1 day after inoculation (2.5 × 10^4)
[18] = 3 days after inoculation (2.5 × 10^4)
[19] = 7 days after inoculation (2.5 × 10^4)
[20] = 14 days after inoculation (2.5 × 10^4)
[21] = 1 day after inoculation (2.6 × 10^4)
[22] = 3 days after inoculation (2.6 × 10^4)
[23] = 7 days after inoculation (2.6 × 10^4)
[24] = 14 days after inoculation (2.6 × 10^4)
[25] = 1 day after inoculation (2.1 × 10^4)
[26] = 3 days after inoculation (2.1 × 10^4)
[27] = 7 days after inoculation (2.1 × 10^4)
[28] = 14 days after inoculation (2.1 × 10^4)
[29] = 1 day after inoculation (1.3 × 10^4)
[30] = 3 days after inoculation (1.3 × 10^4)
[31] = 7 days after inoculation (1.3 × 10^4)
[32] = 14 days after inoculation (1.3 × 10^4)

| Compound | Number of surviving microorganisms per g of contaminated sample, Lactic acid bacteria (Lactic acid bacteria; [1]) | Number of surviving microorganisms per g of contaminated sample, Lactic acid bacteria (Lactic acid bacteria; [2]) | Number of surviving microorganisms per g of contaminated sample, Lactic acid bacteria (Lactic acid bacteria; [3]) | Number of surviving microorganisms per g of contaminated sample, Lactic acid bacteria (Lactic acid bacteria; [4]) | Number of surviving microorganisms per g of contaminated sample, Molds I (Molds I; [5]) | Number of surviving microorganisms per g of contaminated sample, Molds I (Molds I; [6]) | Number of surviving microorganisms per g of contaminated sample, Molds I (Molds I; [7]) | Number of surviving microorganisms per g of contaminated sample, Molds I (Molds I; [8]) | Number of surviving microorganisms per g of contaminated sample, Bacilli (Bacilli; [9]) | Number of surviving microorganisms per g of contaminated sample, Bacilli (Bacilli; [10]) | Number of surviving microorganisms per g of contaminated sample, Bacilli (Bacilli; [11]) | Number of surviving microorganisms per g of contaminated sample, Bacilli (Bacilli; [12]) | Number of surviving microorganisms per g of contaminated sample, Acetic acid bacteria (Acetic acid bacteria; [13]) | Number of surviving microorganisms per g of contaminated sample, Acetic acid bacteria (Acetic acid bacteria; [14]) | Number of surviving microorganisms per g of contaminated sample, Acetic acid bacteria (Acetic acid bacteria; [15]) | Number of surviving microorganisms per g of contaminated sample, Acetic acid bacteria (Acetic acid bacteria; [16]) | Number of surviving microorganisms per g of contaminated sample, Molds II (Molds II; [17]) | Number of surviving microorganisms per g of contaminated sample, Molds II (Molds II; [18]) | Number of surviving microorganisms per g of contaminated sample, Molds II (Molds II; [19]) | Number of surviving microorganisms per g of contaminated sample, Molds II (Molds II; [20]) | also measured |
| --- | --- | --- | --- | --- | --- | --- | --- | --- | --- | --- | --- | --- | --- | --- | --- | --- | --- | --- | --- | --- | --- |
| Calcium Sorbate | 3.4 × 10^3 CFU/g | 2.0 × 10^3 CFU/g | <100 CFU/g | <10 CFU/g | 3.9 × 10^3 CFU/g | <100 CFU/g | <10 CFU/g | <10 CFU/g | 2.8 × 10^3 CFU/g | 1.8 × 10^3 CFU/g | 1.3 × 10^3 CFU/g | 1.2 × 10^3 CFU/g | 1.5 × 10^4 CFU/g | 1.4 × 10^4 CFU/g | 2.0 × 10^4 CFU/g | 1.3 × 10^5 CFU/g | 6.5 × 10^3 CFU/g | <100 CFU/g | <10 CFU/g | <10 CFU/g | Number of surviving microorganisms per g of contaminated sample, Clostridia (Clostridia; 1 day after inoculation (2.9 × 10^4)): 2.2 × 10^3 CFU/g; Number of surviving microorganisms per g of contaminated sample, Clostridia (Clostridia; 3 days after inoculation (2.9 × 10^4)): <100 CFU/g; Number of surviving microorganisms per g of contaminated sample, Clostridia (Clostridia; 7 days after inoculation (2.9 × 10^4)): <10 CFU/g; Number of surviving microorganisms per g of contaminated sample, Clostridia (Clostridia; 14 days after inoculation (2.9 × 10^4)): <10 CFU/g; Number of surviving microorganisms per g of contaminated sample, Gram-negative bacteria (Gram-negative bacteria; [1]): 1.7 × 10^4 CFU/g; Number of surviving microorganisms per g of contaminated sample, Gram-negative bacteria (Gram-negative bacteria; [2]): 1.0 × 10^4 CFU/g; Number of surviving microorganisms per g of contaminated sample, Gram-negative bacteria (Gram-negative bacteria; [3]): 1.9 × 10^3 CFU/g; Number of surviving microorganisms per g of contaminated sample, Gram-negative bacteria (Gram-negative bacteria; [4]): 2.7 × 10^3 CFU/g; Number of surviving microorganisms per g of contaminated sample, Yeasts (Yeasts; [21]): 2.3 × 10^4 CFU/g; Number of surviving microorganisms per g of contaminated sample, Yeasts (Yeasts; [22]): 1.0 × 10^4 CFU/g; Number of surviving microorganisms per g of contaminated sample, Yeasts (Yeasts; [23]): <100 CFU/g; Number of surviving microorganisms per g of contaminated sample, Yeasts (Yeasts; [24]): <10 CFU/g; Number of surviving microorganisms per g of contaminated sample, Gram-positive bacteria (Gram-positive bacteria; [25]): 2.1 × 10^4 CFU/g; Number of surviving microorganisms per g of contaminated sample, Gram-positive bacteria (Gram-positive bacteria; [26]): 6.4 × 10^3 CFU/g; Number of surviving microorganisms per g of contaminated sample, Gram-positive bacteria (Gram-positive bacteria; [27]): <10 CFU/g; Number of surviving microorganisms per g of contaminated sample, Gram-positive bacteria (Gram-positive bacteria; [28]): <10 CFU/g; Number of surviving microorganisms per g of contaminated sample, Thermophilic bacilli (Thermophilic bacilli; [29]): 1.4 × 10^3 CFU/g; Number of surviving microorganisms per g of contaminated sample, Thermophilic bacilli (Thermophilic bacilli; [30]): 5.0 × 10^2 CFU/g; Number of surviving microorganisms per g of contaminated sample, Thermophilic bacilli (Thermophilic bacilli; [31]): <10 CFU/g; Number of surviving microorganisms per g of contaminated sample, Thermophilic bacilli (Thermophilic bacilli; [32]): <10 CFU/g |
| CC(=O)[O-].CC(=O)[O-].[Ca+2] [Calcium Acetate] | 5.6 × 10^5 CFU/g | >3.0 × 10^6 CFU/g | >3.0 × 10^6 CFU/g | 2.4 × 10^4 CFU/g | 1.1 × 10^4 CFU/g | 2.2 × 10^3 CFU/g | 7.6 × 10^3 CFU/g | 4.5 × 10^4 CFU/g | 1.6 × 10^3 CFU/g | 1.0 × 10^3 CFU/g | 1.8 × 10^3 CFU/g | 1.8 × 10^3 CFU/g | 8.4 × 10^5 CFU/g | >3.0 × 10^6 CFU/g | >3.0 × 10^6 CFU/g | 1.5 × 10^6 CFU/g | 1.5 × 10^4 CFU/g | 1.2 × 10^4 CFU/g | >1.0 × 10^5 CFU/g | 3.5 × 10^4 CFU/g | Number of surviving microorganisms per g of contaminated sample, Gram-negative bacteria (Gram-negative bacteria; [1]): 1.7 × 10^4 CFU/g; Number of surviving microorganisms per g of contaminated sample, Gram-negative bacteria (Gram-negative bacteria; [2]): 1.3 × 10^4 CFU/g; Number of surviving microorganisms per g of contaminated sample, Gram-negative bacteria (Gram-negative bacteria; [3]): 2.2 × 10^3 CFU/g; Number of surviving microorganisms per g of contaminated sample, Gram-negative bacteria (Gram-negative bacteria; [4]): <100 CFU/g; Number of surviving microorganisms per g of contaminated sample, Yeasts (Yeasts; [21]): 1.3 × 10^6 CFU/g; Number of surviving microorganisms per g of contaminated sample, Yeasts (Yeasts; [22]): 2.5 × 10^6 CFU/g; Number of surviving microorganisms per g of contaminated sample, Yeasts (Yeasts; [23]): >3.0 × 10^6 CFU/g; Number of surviving microorganisms per g of contaminated sample, Yeasts (Yeasts; [24]): >3.0 × 10^6 CFU/g; Number of surviving microorganisms per g of contaminated sample, Gram-positive bacteria (Gram-positive bacteria; [25]): 1.1 × 10^5 CFU/g; Number of surviving microorganisms per g of contaminated sample, Gram-positive bacteria (Gram-positive bacteria; [26]): 9.0 × 10^4 CFU/g; Number of surviving microorganisms per g of contaminated sample, Gram-positive bacteria (Gram-positive bacteria; [27]): 6.7 × 10^3 CFU/g; Number of surviving microorganisms per g of contaminated sample, Gram-positive bacteria (Gram-positive bacteria; [28]): 5.9 × 10^3 CFU/g; Number of surviving microorganisms per g of contaminated sample, Thermophilic bacilli (Thermophilic bacilli; [29]): 2.1 × 10^3 CFU/g; Number of surviving microorganisms per g of contaminated sample, Thermophilic bacilli (Thermophilic bacilli; [30]): 6.0 × 10^2 CFU/g; Number of surviving microorganisms per g of contaminated sample, Thermophilic bacilli (Thermophilic bacilli; [31]): <10 CFU/g; Number of surviving microorganisms per g of contaminated sample, Thermophilic bacilli (Thermophilic bacilli; [32]): <10 CFU/g |
